Laboratory results as given in patent US11492361B2, “Compounds useful in HIV therapy” (GlaxoSmithKline Intellectual Property Development Limited, priority 2018, dated 2022).
Counter-ions that a name gives are not always drawn.

The compounds below were run on Jurkat HIV-luciferase clones (assay: Jurkat latency reversal assay). Settings: Homo sapiens, Jurkat, 48 h.
Format: cell-based
Method: Jurkat HIV-luciferase clones were maintained in RPMI medium 1640 (Gibco by Life Technologies) containing 10% (vol/vol) fetal bovine serum (SAFC/Sigma-Aldrich) and 25 units/mL penicillin, 25 units/mL streptomycin (Gibco by Life Technologies), and were split 1:4 every 3 to 4 days to maintain a cell density of ˜0.3 to 1 million cells/mL. The Jurkat clones were maintained with the addition of 500 nM EFV in the medium. Three Jurkat cell clones (C16, I15, and N6), each harboring one or two integrated HIV proviruses expressing the luciferase reporter gene, were added at equal amounts for a total of 5,000 cells per well to 384-well plates containing compound titrations. Dose-response testing was performed on compounds dissolved in dimethyl sulfoxide (DMSO, Fisher Scientific, Merelbeke, Belgium) dispensed in duplicate serial 3-fold, 14-point titrations using a D300e Digital Droplet Dispenser (Hewlett-Packard) to give final assay concentrations of 10 μM to 2.1 pM in 50 μL of medium at 0.5% DMSO (vol/vol) final concentration. Cells and compound were incubated at 37° C. for 48 hours, unless otherwise indicated, followed by the addition of 20 μL of Steady-Glo® Luciferase (Promega). Luminescence resulting from the induction of the virally expressed luciferase was measured using an EnVision 2102 Multilabel Plate Reader (Perkin Elmer). Dose-response relationships were analyzed with GraphPad PRISM 6 using a four-parameter logistic regression model to calculate the concentration of compound that gives half-maximal response (EC50) and the maximal percent activation compared to the vehicle control.

| Compound | EC50 [nM] |
| --- | --- |
| CN[C@@H](C)C(=O)N[C@H]1CCS[C@H]2CC(C)(C)[C@@H](C(=O)N[C@H](COCc3ccc4ccc(COC[C@@H](NC(=O)[C@H]5N6C(=O)[C@@H](NC(=O)[C@H](C)NC)CCS[C@H]6CC5(C)C)c5ccccc5)cc4c3)c3ccccc3)N2C1=O [compound 56, (4S,4′S,7S,7′S,9aS,9a′S)-N,N′-((1S,1′S)-((naphthalene-2,7-diylbis(methylene))bis(oxy))bis(1-phenylethane-2,1-diyl))bis(8,8-dimethyl-4-((S)-2-(methylamino)propanamido)-5-oxooctahydropyrrolo[2,1-b][1,3]thiazepine-7-carboxamide)] | 2.9 |
| CN[C@@H](C)C(=O)NC1CCS[C@H]2CC(C)(C)[C@@H](C(=O)N[C@H]3c4ccccc4CC[C@H]3C(=O)NCc3ccc(CNC(=O)[C@@H]4CCc5ccccc5C4NC(=O)[C@H]4N5C(=O)[C@@H](NC(=O)[C@H](C)NC)CCS[C@H]5CC4(C)C)cc3)N2C1=O (stereo in doubt) [compound 9, (4S,4′S,7S,7′S,9aS,9a′S)-N,N′-((1R,1′R,2R,2′R)-(((1,4-phenylenebis(methylene))bis(azanediyl))bis(carbonyl))bis(1,2,3,4-tetrahydronaphthalene-2,1-diyl))bis(8,8-dimethyl-4-((S)-2-(methylamino)propanamido)-5-oxooctahydropyrrolo[2,1-b][1,3]thiazepine-7-carboxamide) dihydrochloride] | 90.3 |
| CN[C@@H](C)C(=S)N[C@H]1CCS[C@H]2CC(C)(C)[C@@H](C(=O)N[C@H](COCCCCOC[C@@H](NC(=O)[C@H]3N4C(=O)[C@@H](NC(=S)[C@H](C)NC)CCS[C@H]4CC3(C)C)c3ccccc3)c3ccccc3)N2C1=O [compound 37, (4S,4′S,7S,7′S,9aS,9a′S)-N,N′-((1S,1′S)-(butane-1,4-diylbis(oxy))bis(1-phenylethane-2,1-diyl))bis(8,8-dimethyl-4-((S)-2-(methylamino)propanethioamido)-5-oxooctahydropyrrolo[2,1-b][1,3]thiazepine-7-carboxamide) dihydrochloride] | 10.9 |
| CN[C@@H](C)C(=O)N[C@H]1CCS[C@H]2CC(C)(C)[C@@H](C(=O)N[C@H](C(=O)N3CCN(C(=O)[C@@H](NC(=O)[C@H]4N5C(=O)[C@@H](NC(=O)[C@H](C)NC)CCS[C@H]5CC4(C)C)c4ccccc4)CC3)c3ccccc3)N2C1=O [compound 26, (4S,4′S,7S,7′S,9aS,9a′S)-N,N′-((1S,1′S)-piperazine-1,4-diylbis(2-oxo-1-phenylethane-2,1-diyl))bis(8,8-dimethyl-4-((S)-2-(methylamino)propanamido)-5-oxooctahydropyrrolo[2,1-b][1,3]thiazepine-7-carboxamide) dihydrochloride] | 69.1 |
| CN[C@@H](C)C(=O)N[C@H]1CCS[C@H]2CC(C)(C)[C@@H](C(=O)N[C@H](C(=O)NCc3ccc(CNC(=O)[C@@H](NC(=O)[C@H]4N5C(=O)[C@@H](NC(=O)[C@H](C)NC)CCS[C@H]5CC4(C)C)c4ccccc4)cc3)c3ccccc3)N2C1=O [compound 24, (4S,4′S,7S,7′S,9aS,9a′S)-N,N′-((1S,1′S)-((1,4-phenylenebis(methylene))bis(azanediyl))bis(2-oxo-1-phenylethane-2,1-diyl))bis(8,8-dimethyl-4-((S)-2-(methylamino)propanamido)-5-oxooctahydropyrrolo[2,1-b][1,3]thiazepine-7-carboxamide)] | 47.9 |
| CN[C@@H](C)C(=S)N[C@H]1CCS[C@H]2CC(C)(C)[C@@H](C(=O)N[C@H]3c4ccccc4C[C@H]3OCC#CC#CCO[C@@H]3Cc4ccccc4[C@@H]3NC(=O)[C@H]3N4C(=O)[C@@H](NC(=S)[C@H](C)NC)CCS[C@H]4CC3(C)C)N2C1=O [compound 15, (4S,4′S,7S,7′S,9aS,9a′S)-N,N′-((1S,1′S,2R,2′R)-(hexa-2,4-diyne-1,6-diylbis(oxy))bis(2,3-dihydro-1H-indene-2,1-diyl))bis(8,8-dimethyl-4-((S)-2-(methylamino)propanethioamido)-5-oxooctahydropyrrolo[2,1-b][1,3]thiazepine-7-carboxamide)] | 15.3 |
| CN[C@@H](C)C(=S)N[C@H]1CCS[C@H]2CC(C)(C)[C@@H](C(=O)N[C@H](COCCCCCCOC[C@@H](NC(=O)[C@H]3N4C(=O)[C@@H](NC(=S)[C@H](C)NC)CCS[C@H]4CC3(C)C)c3ccccc3)c3ccccc3)N2C1=O [compound 41, (4S,4′S,7S,7′S,9aS,9a′S)-N,N′-((1S,1′S)-(hexane-1,6-diylbis(oxy))bis(1-phenylethane-2,1-diyl))bis(8,8-dimethyl-4-((S)-2-(methylamino)propanethioamido)-5-oxooctahydropyrrolo[2,1-b][1,3]thiazepine-7-carboxamide) dihydrochloride] | 51.6 |
| CN[C@@H](C)C(=O)N[C@H]1CCS[C@H]2CC(C)(C)[C@@H](C(=O)N[C@H](COCCOCCOC[C@@H](NC(=O)[C@H]3N4C(=O)[C@@H](NC(=O)[C@H](C)NC)CCS[C@H]4CC3(C)C)c3ccccc3)c3ccccc3)N2C1=O [compound 38, (4S,4′S,7S,7′S,9aS,9a′S)-N,N′-((1S,1′S)-((oxybis(ethane-2,1-diyl))bis(oxy))bis(1-phenylethane-2,1-diyl))bis(8,8-dimethyl-4-((S)-2-(methylamino)propanamido)-5-oxooctahydropyrrolo[2,1-b][1,3]thiazepine-7-carboxamide)] | 50.7 |
| CN[C@@H](C)C(=S)N[C@H]1CCS[C@H]2CC(C)(C)[C@@H](C(=O)N[C@H]3c4ccccc4C[C@H]3OCc3ccc(CO[C@@H]4Cc5ccccc5[C@@H]4NC(=O)[C@H]4N5C(=O)[C@@H](NC(=S)[C@H](C)NC)CCS[C@H]5CC4(C)C)cc3)N2C1=O [compound 23, (4S,4′S,7S,7′S,9aS,9a′S)-N,N′-((1S,1′S,2R,2′R)-((1,4-phenylenebis(methylene))bis(oxy))bis(2,3-dihydro-1H-indene-2,1-diyl))bis(8,8-dimethyl-4-((S)-2-(methylamino)propanethioamido)-5-oxooctahydropyrrolo[2,1-b][1,3]thiazepine-7-carboxamide)] | 55.5 |
| CN[C@@H](C)C(=S)N[C@H]1CCS[C@H]2CC(C)(C)[C@@H](C(=O)N[C@H]3c4ccccc4C[C@H]3C(=O)N3CCN(C(=O)[C@@H]4Cc5ccccc5[C@@H]4NC(=O)[C@H]4N5C(=O)[C@@H](NC(=S)[C@H](C)NC)CCS[C@H]5CC4(C)C)CC3)N2C1=O [compound 47, (4S,7S,9aS)-N-[(1R,2R)-2-{4-[(1R,2R)-1-[(4S,7S,9aS)-8,8-dimethyl-4-[(2S)-2-(methylamino)propanethioamido]-5-oxo-octahydropyrrolo[2,1-b][1,3]thiazepine-7-amido]-2,3-dihydro-1H-indene-2-carbonyl]piperazine-1-carbonyl}-2,3-dihydro-1H-inden-1-yl]-8,8-dimethyl-4-[(2S)-2-(methylamino)propanethioamido]-5-oxo-octahydropyrrolo[2,1-b][1,3]thiazepine-7-carboxamide] | 1.2 |
